Experimental data taken from ChEMBL document CHEMBL1909046, “DrugMatrix in vitro pharmacology data”.

Tests used:
[1] = target: D(1A) dopamine receptor (Homo sapiens, UniProt P21728); experiment: DRUGMATRIX: Dopamine D1 radioligand binding (ligand: [3H] SCH-23390); assay type: cell membranes, CHO, Membrane; conditions: Not Active = under 50% inhibition at 10 µM
[2] = target: Cytochrome P450 2D6 (Homo sapiens, UniProt P10635); conditions: bti-tn-5b1-4; note: in other assays of this panel Not Active means under 50% inhibition at 10 µM
[3] = target: D(3) dopamine receptor (Homo sapiens, UniProt P35462); experiment: DRUGMATRIX: Dopamine D3 radioligand binding (ligand: [3H] Spiperone); assay type: cell membranes, CHO, Membrane
[4] = target: T1, Adenosine receptor A3 (Homo sapiens, UniProt P0DMS8); assay type: cell membranes, CHO-K1, Membrane; conditions: cho-k1;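 note: radioligand binding assay with AB-MECA serving as the labeled ligand; in other assays of this panel Not Active means under 50% inhibition at 10 µM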
T1 sequence (P0DMS8 whole entry): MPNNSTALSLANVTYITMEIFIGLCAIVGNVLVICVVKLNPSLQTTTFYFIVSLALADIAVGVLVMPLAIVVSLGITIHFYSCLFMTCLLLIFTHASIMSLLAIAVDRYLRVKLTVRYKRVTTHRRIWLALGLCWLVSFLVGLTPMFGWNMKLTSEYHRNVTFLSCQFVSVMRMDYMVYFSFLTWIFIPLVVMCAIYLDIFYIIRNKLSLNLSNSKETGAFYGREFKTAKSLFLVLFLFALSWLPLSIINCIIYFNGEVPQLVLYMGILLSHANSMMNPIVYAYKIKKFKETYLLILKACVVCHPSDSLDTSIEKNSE

[5] = target: Insulin receptor (Rattus norvegicus, UniProt P15127); assay type: cell membranes, Wistar, Liver, Membrane; note: in other assays of this panel Not Active means under 50% inhibition at 10 µM
[6] = DRUGMATRIX: Glutamate, Kainate radioligand binding (ligand: [3H] Kainic acid); assay type: cell membranes, Rattus norvegicus, Wistar, Brain, Membrane; conditions: Not Active = under 50% inhibition at 10 µM

Chain of D(3) dopamine receptor (P35462 whole entry): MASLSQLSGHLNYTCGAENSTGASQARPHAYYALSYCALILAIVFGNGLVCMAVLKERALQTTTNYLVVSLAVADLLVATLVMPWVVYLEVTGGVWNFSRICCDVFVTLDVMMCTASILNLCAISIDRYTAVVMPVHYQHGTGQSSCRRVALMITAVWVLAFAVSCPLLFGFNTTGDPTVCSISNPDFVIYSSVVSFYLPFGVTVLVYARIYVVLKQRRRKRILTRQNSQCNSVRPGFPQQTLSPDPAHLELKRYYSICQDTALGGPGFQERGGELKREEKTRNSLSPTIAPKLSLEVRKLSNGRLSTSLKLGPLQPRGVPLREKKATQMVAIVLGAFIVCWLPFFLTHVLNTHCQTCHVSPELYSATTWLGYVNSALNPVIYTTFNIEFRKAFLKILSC
Chain of Cytochrome P450 2D6 (P10635 whole entry): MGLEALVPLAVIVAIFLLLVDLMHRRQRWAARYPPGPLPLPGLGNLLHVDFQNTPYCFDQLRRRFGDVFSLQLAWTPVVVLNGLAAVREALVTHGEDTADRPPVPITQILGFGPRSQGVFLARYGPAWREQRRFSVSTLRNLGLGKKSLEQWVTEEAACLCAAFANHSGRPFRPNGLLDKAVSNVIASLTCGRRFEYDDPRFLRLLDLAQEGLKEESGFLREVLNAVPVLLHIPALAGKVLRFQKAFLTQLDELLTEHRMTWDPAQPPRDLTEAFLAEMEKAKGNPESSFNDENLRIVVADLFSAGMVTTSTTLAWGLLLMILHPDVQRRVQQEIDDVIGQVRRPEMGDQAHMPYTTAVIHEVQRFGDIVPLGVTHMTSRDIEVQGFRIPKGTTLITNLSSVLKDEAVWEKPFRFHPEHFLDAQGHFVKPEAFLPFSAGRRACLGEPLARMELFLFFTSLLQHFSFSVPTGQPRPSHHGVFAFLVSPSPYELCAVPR
Chain of D(1A) dopamine receptor (P21728 whole entry): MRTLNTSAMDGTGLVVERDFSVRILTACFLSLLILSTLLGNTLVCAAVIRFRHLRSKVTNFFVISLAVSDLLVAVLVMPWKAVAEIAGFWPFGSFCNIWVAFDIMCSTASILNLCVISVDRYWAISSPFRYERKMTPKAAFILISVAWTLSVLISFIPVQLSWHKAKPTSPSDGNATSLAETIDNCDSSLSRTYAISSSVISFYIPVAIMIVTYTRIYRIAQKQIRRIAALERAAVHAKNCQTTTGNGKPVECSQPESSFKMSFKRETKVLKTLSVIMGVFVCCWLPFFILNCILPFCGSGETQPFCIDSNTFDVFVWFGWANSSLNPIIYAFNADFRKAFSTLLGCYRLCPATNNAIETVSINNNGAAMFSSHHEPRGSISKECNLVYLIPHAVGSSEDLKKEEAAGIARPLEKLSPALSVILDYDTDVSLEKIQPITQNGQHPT
Chain of Insulin receptor (P15127 27-759 limits assumed): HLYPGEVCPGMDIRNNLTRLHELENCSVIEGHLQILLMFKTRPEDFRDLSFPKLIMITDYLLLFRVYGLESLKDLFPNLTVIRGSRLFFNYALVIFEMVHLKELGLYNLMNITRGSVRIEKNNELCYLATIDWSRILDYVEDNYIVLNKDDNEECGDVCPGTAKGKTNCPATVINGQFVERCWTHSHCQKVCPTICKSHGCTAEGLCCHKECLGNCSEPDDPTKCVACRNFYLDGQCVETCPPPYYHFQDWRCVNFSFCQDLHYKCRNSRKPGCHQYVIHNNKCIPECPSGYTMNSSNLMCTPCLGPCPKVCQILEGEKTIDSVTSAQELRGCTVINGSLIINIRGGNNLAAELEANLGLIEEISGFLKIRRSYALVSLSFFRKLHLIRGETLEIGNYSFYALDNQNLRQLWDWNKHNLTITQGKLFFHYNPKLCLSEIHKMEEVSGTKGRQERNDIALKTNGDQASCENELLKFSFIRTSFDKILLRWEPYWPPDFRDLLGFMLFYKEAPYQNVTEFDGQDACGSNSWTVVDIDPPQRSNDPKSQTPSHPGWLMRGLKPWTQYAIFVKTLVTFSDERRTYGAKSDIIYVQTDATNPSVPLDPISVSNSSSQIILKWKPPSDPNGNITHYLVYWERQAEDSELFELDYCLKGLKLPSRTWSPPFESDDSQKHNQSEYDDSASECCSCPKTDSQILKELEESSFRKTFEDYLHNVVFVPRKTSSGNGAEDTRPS
Chain of Insulin receptor (P15127 764-1383 limits assumed): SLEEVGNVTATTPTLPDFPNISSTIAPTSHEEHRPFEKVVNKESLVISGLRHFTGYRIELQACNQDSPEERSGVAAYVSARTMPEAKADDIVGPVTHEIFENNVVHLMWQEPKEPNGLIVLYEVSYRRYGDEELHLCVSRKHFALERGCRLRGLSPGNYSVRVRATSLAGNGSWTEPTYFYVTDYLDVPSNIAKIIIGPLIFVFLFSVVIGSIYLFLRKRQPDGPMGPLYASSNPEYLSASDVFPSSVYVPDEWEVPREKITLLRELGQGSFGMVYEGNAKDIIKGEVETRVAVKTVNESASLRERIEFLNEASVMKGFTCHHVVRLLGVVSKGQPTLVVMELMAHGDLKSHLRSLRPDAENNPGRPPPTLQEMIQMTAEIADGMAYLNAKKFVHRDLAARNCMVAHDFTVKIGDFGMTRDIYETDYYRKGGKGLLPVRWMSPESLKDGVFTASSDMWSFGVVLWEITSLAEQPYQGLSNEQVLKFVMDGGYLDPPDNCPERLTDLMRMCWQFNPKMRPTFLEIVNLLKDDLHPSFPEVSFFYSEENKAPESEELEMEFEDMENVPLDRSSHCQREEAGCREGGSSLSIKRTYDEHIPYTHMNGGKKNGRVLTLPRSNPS

| SMILES | IC50 ([1]; cho) | IC50 [2] | Ki [2] | IC50 ([3]; cho) | IC50 [4] | IC50 [5] | IC50 [6] | Ki [6] | IC50 ([1]; read-out: IC50) | Ki ([1]; read-out: Ki) | IC50 ([3]; read-out: IC50) | Ki ([3]; read-out: Ki) |
| --- | --- | --- | --- | --- | --- | --- | --- | --- | --- | --- | --- | --- |
| Cc1cc(O)cc(C)c1Cl [CHLOROXYLENOL] | Not Active | Not Active | Not Active | Not Active | Not Active | Not Active | Not Active | Not Active |  |  |  |  |
| CCCNC(=O)NS(=O)(=O)c1ccc(Cl)cc1 [CHLORPROPAMIDE] | Not Active | Not Active | Not Active | Not Active | Not Active | Not Active | Not Active | Not Active |  |  |  |  |
| NS(=O)(=O)c1cc(C2(O)NC(=O)c3ccccc32)ccc1Cl (centres undefined) [CHLORTHALIDONE] | Not Active | Not Active | Not Active | Not Active | Not Active | Not Active | Not Active | Not Active |  |  |  |  |
| O=C(O)CC(O)(CC(=O)O)C(=O)O [CITRIC ACID] | Not Active | Not Active | Not Active | Not Active | Not Active | Not Active | Not Active | Not Active |  |  |  |  |
| CC(C)NCC(O)c1ccccc1Cl (centres undefined) [CLORPRENALINE] | Not Active | Not Active | Not Active | Not Active | Not Active | Not Active | Not Active | Not Active |  |  |  |  |
| CN1C[C@@H]2C[C@H]1CN2c1cc2c(cc1F)c(=O)c(C(=O)O)cn2C1CC1 [DANOFLOXACIN] | Not Active | Not Active | Not Active | Not Active | Not Active | Not Active | Not Active | Not Active |  |  |  |  |
| COc1cccc2c1C(=O)c1c(O)c3c(c(O)c1C2=O)C[C@@](O)(C(C)=O)C[C@@H]3O[C@H]1C[C@H](N)[C@H](O)[C@H](C)O1 [DAUNORUBICIN] | Not Active | Not Active | Not Active | Not Active | Not Active | Not Active | Not Active | Not Active |  |  |  |  |
| O=C(O)c1cc(-c2ccc(F)cc2F)ccc1O [DIFLUNISAL] | Not Active | Not Active | Not Active | Not Active | Not Active | Not Active | Not Active | Not Active |  |  |  |  |
| C[S+](C)[O-] [DIMETHYL SULFOXIDE] | Not Active | Not Active | Not Active | Not Active | Not Active | Not Active | Not Active | Not Active |  |  |  |  |
| CC1=NN(c2ccccc2)C(=O)C1 [EDARAVONE] | Not Active | Not Active | Not Active | Not Active | Not Active | Not Active | Not Active | Not Active |  |  |  |  |
| CC(C)C[C@H]1C(=O)N2CCC[C@H]2[C@]2(O)O[C@](NC(=O)[C@@H]3C=C4c5cccc6[nH]cc(c56)C[C@H]4N(C)C3)(C(C)C)C(=O)N12 [ERGOCRYPTINE] |  | Not Active | Not Active |  | Not Active | Not Active | Not Active | Not Active | 0.403 µM | 0.202 µM | 0.000589 µM | 0.0002 µM |
| C[C@]12CC[C@@H]3c4ccc(O)cc4CC[C@H]3[C@@H]1C[C@@H](O)[C@@H]2O [ESTRIOL] | Not Active | Not Active | Not Active | Not Active | Not Active | Not Active | Not Active | Not Active |  |  |  |  |
| C#C[C@]1(O)CC[C@H]2[C@@H]3CCC4=CC(=O)CC[C@]4(C)[C@H]3CC[C@@]21C [ETHISTERONE] | Not Active | Not Active | Not Active | Not Active | Not Active | Not Active | Not Active | Not Active |  |  |  |  |
| CC(O)(P(=O)(O)O)P(=O)(O)O [ETIDRONIC ACID] | Not Active | Not Active | Not Active | Not Active | Not Active | Not Active | Not Active | Not Active |  |  |  |  |
